# Results: patent US20160106719A1, “Transplantation Adjuvant in Cell Therapy Using Neural Progenitor Cells” (SUMITOMO DAINIPPON PHARMA CO., LTD., priority 2013, published 2016)
# Assays:
# [1] = tested on: re-aggregated PSA-NCAM+ cells (neural progenitor cells derived from mouse iPS cell line 440A3); assay: In vitro differentiation of mouse iPS cell-derived neural progenitor cells into dopaminergic neurons (immunocytochemistry for marker molecules); type: cell-based
# Experimental: DMEM contained 1% fetal bovine serum (FBS), 5% knockout serum replacement (KSR; manufactured by Invitrogen), 0.1 mM non-essential amino acids, 1 mM sodium pyruvate, 0.1 mM 2-mercaptoethanol (2-ME; manufactured by Invitrogen), 2000 U/ml leukemia inhibitory factor (manufactured by Invitrogen), and 1.5 μg/ml puromycin. In order to differentiate and induce the iPS cells into neural cells, serum-free floating culture of embryoid bodies-like aggregates (SFEB) was employed. Specifically, aggregates of the 440A3 cells were separated into individual cells by using 0.25% trypsin/1 mM EDTA (ethylenediaminetetraacetic acid), and the resultant cells were seeded in a 96-well low adhesion plate (product name: Lipidure-Coat Plate A-US96, manufactured by NOF Corporation) at a concentration (cell density) of 3000 cells/well. Thereafter, re-aggregation of the 440A3 cells was induced in a differentiation medium containing GMEM (Glasgow Minimum Essential Medium), 5% KSR, 0.1 mM non-essential amino acids, 1 mM sodium pyruvate and 0.1 mM 2-ME, and this day was defined as day 0 (FIG. 1). During this differentiation process, various factors were added to the differentiation medium for inducing midbrain dopaminergic phenotypes as illustrated in FIG. 1. Specifically, from day 3 to day 7 after starting the SFEB, 20 ng/ml of mouse FGF-8b (manufactured by R & D Systems) was added, from day 4 to day 7 after starting the SFEB, 10 ng/ml of recombinant mouse sonic hedgehog (C25I1) N-terminus (manufactured by R & D Systems) was added, and on and after day 7 after starting the SFEB, 1% N-2 supplement (manufactured by Gibco) and 200 nM ascorbic acid were added. The KSR was removed from the differentiation medium on day 7 after starting the SFEB.
# On day 9 after starting the SFEB, the 440A3 cells were washed with phosphate buffered saline (PBS(-)) twice. Thereafter, the 440A3 cells were dissociated into single cells by five-minute incubation performed at 37° C. by using Accumax (manufactured by Innovate Cell Technologies, product name). The cells were collected with a FACS buffer. The FACS buffer was constituted by PBS(-) containing 2% FBS, 20 mM D-glucose and 1% penicillin/streptomycin (P/S, manufactured by Invitrogen). The collected cells were mechanically dissociated into a single cell suspension by a gentle pipetting operation.
# Next, the resultant cells were incubated with a mouse anti-PSA-NCAM antibody (dilution rate of 1:200, manufactured by Millipore) at 4° C. for about 30 minutes. Thereafter, a washing operation using a centrifuge was performed twice, and the resultant cells were further incubated for 30 minutes with a secondary antibody of a donkey anti-mouse IgG (dilution rate of 1:400, manufactured by Invitrogen) labeled with AlexaFluor 594. Dead cells and cell debris were excluded by using 7-aminoactinomycin-D (7-AAD, manufactured by BD Pharmigen) stain. The remaining living cells were suspended again at a final concentration (cell density) of 1×10^7 cells/ml. Cell sorting was conducted by using a FACSAria II cell sorter (manufactured by Becton Dickinson And Company) equipped with a 488 nm argon laser, a 633 nm helium-neon laser, a 100 μm nozzle and a FACSDiva software program. A PSA-NCAM positive rate was determined on the basis of a negative control not using a primary antibody.
# After the cell sorting, in order to induce the reaggregation of the cells, a PSA-NCAM^+ cell group was seeded in a DMEM/F12 medium (manufactured by Wako Pure Chemical Industries, Ltd.) in a 96-well plate at a concentration (cell density) of 20000 cells/well. The DMEM/F12 medium contained 1% N-2 supplement, 200 nM ascorbic acid, 2% B27 supplement (manufactured by Invitrogen), 0.5 mM L-glutamine and 1% P/S. In order to prevent apoptosis, a ROCK inhibitor, Y-27632 (manufactured by Wako Pure Chemical Industries, Ltd.), was used at a concentration of 30 μM during the cell sorting process and the following overnight cultivation. […]
# [2] = tested on: TH+ neurons derived from mouse iPS cells; assay: In vitro survival of TH+ neurons with caspase 3 expression as index of apoptosis; type: cell-based; conditions: control 18.0±5.9%; no significant difference among four groups
# Experimental: After the cell sorting, in order to induce the reaggregation of the cells, a PSA-NCAM^+ cell group was seeded in a DMEM/F12 medium (manufactured by Wako Pure Chemical Industries, Ltd.) in a 96-well plate at a concentration (cell density) of 20000 cells/well. The DMEM/F12 medium contained 1% N-2 supplement, 200 nM ascorbic acid, 2% B27 supplement (manufactured by Invitrogen), 0.5 mM L-glutamine and 1% P/S. In order to prevent apoptosis, a ROCK inhibitor, Y-27632 (manufactured by Wako Pure Chemical Industries, Ltd.), was used at a concentration of 30 μM during the cell sorting process and the following overnight cultivation. On day 10 after starting the SFEB, any one of valproic acid (VPA) (manufactured by Sigma-Aldrich), zonisamide (ZNS) sodium salt (manufactured by Sumitomo Dainippon Pharma Co., Ltd.), 17β estradiol (E2) (manufactured by Sigma-Aldrich), a glial cell line derived neurotrophic factor (GDNF) (manufactured by R & D Systems) and PBS(-) was added to the medium for 4 days. Each of VPA, ZNS and E2 was used at three different concentrations. Specifically, the concentration of VPA was 0.01 mM, 0.1 mM or 1 mM, the concentration of ZNS was 1 μM, 10 μM or 100 μM, and the concentration of E2 was 1 nM, 10 nM or 100 nM. GDNF was added at a concentration of […] to be used as a positive control. […]
# [3] = tested on: grafts derived from mouse iPS cells; assay: Transplantation experiment of mouse iPS cell-derived dopamine neural progenitor cells into striatum of SD rats (immunohistochemistry of grafts); type: in vivo; conditions: four weeks after transplantation
# Experimental: Ten-week-old Sprague-Dawley rats (SD rats, available from Shimizu Laboratory Supplies Co., Ltd.) were handled in accordance with the Guidelines for Animal Experiments of Kyoto University. Each SD rat was anesthetized, and donor cells were transplanted by stereotaxic injection into striatums on both sides. Two cell aggregates (containing 3.1×10^5 cells on average) obtained on day 9 after starting the SFEB were collected in 1 μl of PBS(-) so as to be used as the donor cells for the transplantation in each tract. To the PBS(-), Y-27632 was added at a final concentration of […]. Thereafter, intraperitoneal injection of VPA (150 mg/kg/day), ZNS sodium salt (30 mg/kg/day), E2 (80 μM/kg/day) or a saline was conducted from two days before transplanting the donor cells until a day of necropsy. For immunosuppression, cyclosporin A (CsA, manufactured by Wako Pure Chemical Industries, Ltd.) was administered to all the SD rats at a daily dose of 10 mg/kg. Four weeks after the transplantation of the donor cells, the brains of the SD rats were washed and fixed by intracardially perfusing 4% paraformaldehyde under deep anesthesia. On the day of necropsy, a blood sample was collected from each SD rat one hour after the final injection of the test compound or CsA. Such a sample was sent to SRL, Inc. (Tokyo, Japan) where the blood concentration of the administered drug (test compound) was measured.
# In an in vitro experiment, a cell aggregate treated with any of the above-described test compounds on day 14 after starting the SFEB was fixed with 4% paraformaldehyde. Thereafter, the fixed cell aggregate was frozen and sliced into thin sections each having a thickness of 10 μM by using a microtome for immunocytochemistry. On the other hand, in an in vivo experiment (transplantation experiment), the brain of a SD rat or a SCID rat was taken out after the transplantation experiment to be fixed again with 4% paraformaldehyde for 2 days. Thereafter, the fixed brain of the SD rat or SCID rat was cryopreserved in 30% sucrose for 3 days, frozen, and sliced into thin sections each having a thickness of 40 μM for immunohistochemistry. The frozen sections of the sphere (spherical cell mass) and the brain were subjected to a permeabilization and blocking treatment in PBS(-) for 1 hour at room temperature to be used as samples. The PBS(-) contained 0.3% Triton-X and 2% donkey serum. Thereafter, each of the sections was incubated overnight together with a primary antibody at 4° C. Primary antibodies used in this example are a rabbit anti-tyrosine hydroxylase antibody (dilution rate of 1:400, TH; manufactured by Millipore), a mouse anti-TH antibody (dilution rate of 1:200, manufactured by Millipore), a sheep anti-TH antibody (dilution rate of 1:400, manufactured by Millipore), a mouse anti-Tubβ3 antibody (dilution rate of 1:1000, Tuj1; manufactured by Covance Inc.), a rat anti-NURR1 antibody (dilution rate of 1:1000, KAN Research Institute, Inc., Kobe, Japan), a rabbit anti-Ki67 antibody (dilution rate of 1:1000, manufactured by Novocastra: NCL-Ki67p), a rabbit anti-caspase 3 antibody (dilution rate of 1:500, manufactured by Santa Cruz Biotechnology, Inc.), a rat anti-M2M6 antibody (dilution rate of 1:50, manufactured by Developmental Study Hybridoma Bank), a mouse anti-Nestin antibody (dilution rate of 1:50; manufactured by Millipore), a rabbit anti-Pitx3 antibody (dilution rate of 1:500; manufactured by Chemicon International Inc.), a goat […] antibody (dilution rate of 1:500, Foxa2; manufactured by Santa Cruz Biotechnology, Inc.), a mouse anti-human Nuclei antibody (dilution rate of 1:1000; manufactured by Millipore), and a mouse anti-NeuN antibody (dilution rate of 1:500, manufactured by Chemicon International Inc.). After washing with PBS (0.05% Tween-20) three times, the resultant sample was incubated with an Alexa Fluor-conjugated secondary antibody for 1 hour at room temperature. […]
# [4] = tested on: grafts derived from human iPS cells; assay: Transplantation experiment of human iPS cell-derived dopamine neural progenitor cells into striatum of SCID rats (immunohistochemistry of grafts); type: in vivo; conditions: ZNS at a high dose i.p., four weeks after transplantation
# Experimental: Twelve-week-old SCID rats (produced by Institute of Laboratory Animals, Graduate School of Medicine, Kyoto University) were handled in accordance with the Guidelines for Animal Experiments of Kyoto University. The SCID rats were anesthetized, and donor cells were transplanted by stereotaxic injection into striatums on both sides. Dopamine neural progenitor cells (2.7×10^5 cells on average) prepared from 1039A1 cell, that is, a human iPS cell line, were collected in 2 μl of PBS(-) so as to be used as the donor cells for the transplantation in each tract. To the PBS(-), […] was added at a final concentration of 30 μM. Thereafter, intraperitoneal injection of VPA (150 mg/kg/day or 600 mg/kg/day, which are sometimes designated respectively as a high dose and a low dose), ZNS sodium salt (30 mg/kg/day or 60 mg/kg/day, which are sometimes designated respectively as a high dose and a low dose), or a saline was conducted from two days before transplanting the donor cells until a day of necropsy. Four weeks after the transplantation of the donor cells, the brains of the SCID rats were washed and fixed by intracardially perfusing 4% paraformaldehyde under deep anesthesia. On the day of necropsy, a blood sample was collected from each SCID rat one hour after the final injection of the test compound, and the blood concentration of the drug (test compound) was measured.
# In an in vitro experiment, a cell aggregate treated with any of the above-described test compounds on day 14 after starting the SFEB was fixed with 4% paraformaldehyde. Thereafter, the fixed cell aggregate was frozen and sliced into thin sections each having a thickness of 10 μM by using a microtome for immunocytochemistry. On the other hand, in an in vivo experiment (transplantation experiment), the brain of a SD rat or a SCID rat was taken out after the transplantation experiment to be fixed again with 4% paraformaldehyde for 2 days. […]
# [5] = ddA or ICI singly added to cells, vs control
smiles,measurement,setting,value
"C[C@]12CC[C@@H]3c4ccc(O)cc4CC[C@H]3[C@@H]1CC[C@@H]2O [E2, 17β estradiol]",ratio of TH+ cells,"[1]; E2 10 nM, day 10 to 14, control 5.2±1.1%",12.2±2.3%
same,ratio of dopaminergic neurons undergoing apoptosis (TH+ neurons expressing caspase 3),[2],low
"C[C@]12CC[C@@H]3c4ccc(O)cc4C[C@@H](CCCCCCCCC[S+]([O-])CCCC(F)(F)C(F)(F)F)[C@H]3[C@@H]1CC[C@@H]2O (stereo partly drawn) [ICI, ICI182780]",ratios of increase in the TH+ cells,[1]; 2 μM ICI added to 10 nM E2,remarkably reduced
same,ratio of TH+ cells,[1]; [5],not changed as compared with that of the control
"NS(=O)(=O)Cc1noc2ccccc12 [ZNS, 1,2-benzisoxazole-3-methanesulfonamide]",ratio of the differentiation of the transplanted NPC into neurons (NeuN+),"[3]; ZNS sodium salt 30 mg/kg/day i.p., vs control",almost equivalent to that of a control
same,ratio of TH+ cells that were FOXA2+,"[3]; VPA 150 mg/kg/day or ZNS 30 mg/kg/day i.p., control 24.7±9.3%",80.4±21.1%
same,number of midbrain dopaminergic neurons (TH+ FOXA2+) in a graft,"[3]; VPA 150 mg/kg/day or ZNS 30 mg/kg/day i.p., control 97±76 cells",835±540 cells
same,ratio of TH+ cells that were FOXA2+,[4]; control 76.3±9.7%,91.8±6.2%
same,number of midbrain dopaminergic neurons (TH+ FOXA2+) in a graft,[4]; control 2297±1116 cells,5889±1821 cells
same,number of TH+ cells in a graft,[4]; control 3026±1349 cells,6480±2145 cells
"C[C@H]1O[C@@H](n2cnc3c(N)ncnc32)C[C@@H]1O [ddA, 2,5-dideoxyadenosine]",ratios of increase in the TH+ cells,[1]; 100 μM ddA added to 0.1 mM VPA,remarkably reduced
same,ratio of TH+ cells,[1]; [5],not changed as compared with that of the control
